# Test results: patent publication US20100047332A1, “Treatments for burns using thyroid hormone compound in a human” (priority 2005, published 2010)
# Columns and labels:
# TSH = settings: topically applied, humans; cited from earlier work
# heart wounds = settings: 500 ngs continuously, slow release pellet; cited from earlier work
# burns = settings: small quantities in drinking water, excision and grafting, after 5 weeks; cited from earlier work
# [1] = test system: wounds such as lacerations; assay: Lacerations treated with continuous topical T-3 or TriAc; format: in vivo, human; settings: continuous topical application, in approximately three days
# dermis and epidermis = settings: topical application, not intraperitoneal; cited from earlier work
# excisional wounds = settings: cited from earlier work
# [2] = test system: burned and blistered area of the right thigh; assay: Topical T-3 in Silvadene ointment on a burn
signs of inflammation [1],SMILES,effect on TSH levels or other thyroid hormone function tests (TSH),healing of heart wounds (heart wounds),healing rate of burns (burns),growth of the dermis and epidermis (dermis and epidermis),"healing of excisional non thermal wounds (excisional wounds; eurythroid mouse, daily)","wound healing (excisional wounds; intraperitoneal, hypothyroid mice)","cellular debris and signs of inflammation ([2]; T-3 1 mg in 30 ml Silvadene ointment, daily for two weeks)",appearance of the treated area ([2]; after 6 weeks)
,"N[C@@H](Cc1cc(I)c(Oc2cc(I)c(O)c(I)c2)c(I)c1)C(=O)O [T-4, thyroxine]",no effect on TSH levels,,,,,,,
increased signs of inflammation,"N[C@@H](Cc1cc(I)c(Oc2ccc(O)c(I)c2)c(I)c1)C(=O)O [T-3, 3,5,3′-triiodothyronine]",,decreased healing of heart wounds,no change in the healing rate,affect the growth of the dermis and epidermis,accelerates the healing,improved wound healing,more cellular debris and signs of inflammation,less reddened areas and had less discolored skin
